Literature values in patent EP4623708A1, “SWEETENER COMPOSITION FOR POUCHED ORAL PRODUCTS” (Nicoventures Trading Limited, priority 2024, dated 2025).

What was measured:
[1] = relative to sugar

solubility in water	Compound	times sweeter than sugar [1]
water-soluble	CC(/C=C/C=C(C)/C=C/C(=O)O)=C\C=C\C=C(C)\C=C\C=C(C)\C=C\C(=O)O (stereo in doubt) [norbixin, (2E,4E,6E,8E,10E,12E,14E,16E,18E)-4,8,13,17-tetramethylicosa-2,4,6,8,10,12,14,16,18-nonaenedioic acid]	–
–	OC[C@H]1O[C@H](O[C@]2(CCl)O[C@H](CCl)[C@@H](O)[C@@H]2O)[C@H](O)[C@@H](O)[C@H]1Cl [Sucralose, trichlorogalatosucrose]	about 600 times
insoluble in water	COC(=O)/C=C/C(C)=C\C=C\C(C)=C\C=C\C=C(C)\C=C\C=C(C)\C=C\C(=O)O [bixin, (2E,4E,6E,8E,10E,12E,14E,16Z,18E)-20-methoxy-4,8,13,17-tetramethyl-20-oxoicosa-2,4,6,8,10,12,14,16,18-nonaenoic acid]	–
